# Reference: patent US20250129067A1 (Progentos Therapeutics, Inc., priority 2021, published 2025)
# Legend:
# [1] = tested on: Oligodendrocyte progenitor cells (OPCs); assay: In vitro OPC differentiation assay, GPR17 expression (immunocytochemistry); settings: 3 μM (10× concentration, final 0.3 μM); 72 hours; fold change over vehicle
# [2] = target: PDGFRα (Homo sapiens (Human), UniProt P16234); assay: PDGFRα kinase enzyme assay (Promega PDGFRα Kinase Enzyme System, ADP-Glo); format: biochemical; settings: 11-point dose response, 10,000 nM to 0.169 nM; 150 uM ATP; BLQ = below limit of quantitation; read-out: IC50 Values on PDGFRα Kinase Inhibition, IC50
# PDGFRα, sequence (P16234 24-1089): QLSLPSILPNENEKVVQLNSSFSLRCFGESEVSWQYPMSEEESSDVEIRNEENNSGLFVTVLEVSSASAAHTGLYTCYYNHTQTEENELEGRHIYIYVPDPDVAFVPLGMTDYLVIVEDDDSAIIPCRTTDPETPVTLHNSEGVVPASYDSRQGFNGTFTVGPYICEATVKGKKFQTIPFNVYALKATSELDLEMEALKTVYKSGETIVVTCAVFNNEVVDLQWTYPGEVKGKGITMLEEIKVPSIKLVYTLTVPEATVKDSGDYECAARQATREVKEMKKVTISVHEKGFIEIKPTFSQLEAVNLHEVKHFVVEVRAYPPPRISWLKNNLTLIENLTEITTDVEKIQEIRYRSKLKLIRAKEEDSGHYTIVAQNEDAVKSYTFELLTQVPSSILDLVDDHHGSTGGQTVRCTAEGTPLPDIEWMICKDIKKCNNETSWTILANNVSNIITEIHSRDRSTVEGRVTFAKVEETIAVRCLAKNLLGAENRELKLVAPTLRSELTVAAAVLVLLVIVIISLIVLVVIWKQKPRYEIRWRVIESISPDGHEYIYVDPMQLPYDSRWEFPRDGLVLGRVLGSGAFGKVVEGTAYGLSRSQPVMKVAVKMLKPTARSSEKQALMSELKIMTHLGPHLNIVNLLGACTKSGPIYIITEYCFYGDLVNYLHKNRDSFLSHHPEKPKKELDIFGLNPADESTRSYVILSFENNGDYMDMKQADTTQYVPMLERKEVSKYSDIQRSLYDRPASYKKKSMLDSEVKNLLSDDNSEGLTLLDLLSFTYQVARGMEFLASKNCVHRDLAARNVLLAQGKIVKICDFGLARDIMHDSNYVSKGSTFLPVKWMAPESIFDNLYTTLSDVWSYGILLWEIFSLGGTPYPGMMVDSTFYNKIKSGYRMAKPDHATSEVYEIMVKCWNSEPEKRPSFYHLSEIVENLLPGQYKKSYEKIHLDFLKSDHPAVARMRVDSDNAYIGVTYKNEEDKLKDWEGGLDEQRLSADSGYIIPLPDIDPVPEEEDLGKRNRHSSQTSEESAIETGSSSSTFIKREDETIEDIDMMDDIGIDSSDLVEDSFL
# Summary of the method: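 Read-out was ADP-Glo: remaining ATP depleted, ADP converted to luminescence and compared with a standard curve.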
SMILES,GPR17 Fold Induction (Over Vehicle; 3 μM) [1],IC50 [2] [µM]
"Cn1cc(-c2ccc3c(C4CCC(CCc5ccccc5)CC4)cnn3c2)cn1 (stereo not drawn) [Compound 141, 6-(1-methyl-1H-pyrazol-4-yl)-3-(4-phenethylcyclohexyl)pyrazolo[1,5-a]pyridine]",1.09,> 10
"CC1CN(c2ncc(Cc3ccccc3)cn2)CCN1c1cnn2cc(-c3cnn(C)c3)ccc12 (stereo not drawn) [Compound 142, 3-(4-(5-benzylpyrimidin-2-yl)-2-methylpiperazin-1-yl)-6-(1-methyl-1H-pyrazol-4-yl)pyrazolo[1,5-a]pyridine]",5.85,9.54
"CC1CN(c2cnn3cc(-c4cnn(C)c4)ccc23)CCN1c1ncc(Cc2ccccc2)cn1 (stereo not drawn) [Compound 143, 3-(4-(5-benzylpyrimidin-2-yl)-3-methylpiperazin-1-yl)-6-(1-methyl-1H-pyrazol-4-yl)pyrazolo[1,5-a]pyridine]",3.89,0.616
"Cn1cc(-c2ccc3c(N4CCN(c5ncc(Cc6ccccc6)cn5)C(=O)C4)cnn3c2)cn1 [Compound 144, 1-(5-benzylpyrimidin-2-yl)-4-(6-(1-methyl-1H-pyrazol-4-yl)pyrazolo[1,5-a]pyridin-3-yl)piperazin-2-one]",2.64,4.53
"Cn1cc(-c2ccc3c(N4CCC(C(=O)OCc5ccccc5)CC4)cnn3c2)cn1 [Compound 145, benzyl 1-(6-(1-methyl-1H-pyrazol-4-yl)pyrazolo[1,5-a]pyridin-3-yl)piperidine-4-carboxylate]",1.73,6.97
"Cn1cc(-c2ccc3c(N4CCC(C(=O)NCc5ccccc5)CC4)cnn3c2)cn1 [Compound 146, N-benzyl-1-(6-(1-methyl-1H-pyrazol-4-yl)pyrazolo[1,5-a]pyridin-3-yl)piperidine-4-carboxamide]",4.45,5.69
"CN(Cc1ccccc1)C(=O)C1CCN(c2cnn3cc(-c4cnn(C)c4)ccc23)CC1 [Compound 147, N-benzyl-N-methyl-1-(6-(1-methyl-1H-pyrazol-4-yl)pyrazolo[1,5-a]pyridin-3-yl)piperidine-4-carboxamide]",2.23,6.72
"Cn1cc(-c2ccc3c(N4CC(Nc5ncc(Cc6ccccc6)cn5)C4)cnn3c2)cn1 [Compound 149, 5-benzyl-N-(1-(6-(1-methyl-1H-pyrazol-4-yl)pyrazolo[1,5-a]pyridin-3-yl)azetidin-3-yl)pyrimidin-2-amine]",8.88,> 10
"Cn1cc(-c2ccc3c(N4CCN(c5ncc(CCc6ccccc6)cn5)CC4)cnn3c2)cn1 [Compound 152, 6-(1-methyl-1H-pyrazol-4-yl)-3-(4-(5-phenethylpyrimidin-2-yl)piperazin-1-yl)pyrazolo[1,5-a]pyridine]",4.33,7.19
"Cn1cc(-c2ccc3c(N4CCN(c5nsc(Cc6ccccc6)n5)CC4)cnn3c2)cn1 [Compound 154, 5-benzyl-3-(4-(6-(1-methyl-1H-pyrazol-4-yl)pyrazolo[1,5-a]pyridin-3-yl)piperazin-1-yl)-1,2,4-thiadiazole]",13.45,0.697
"Cn1cc(-c2ccc3c(N4CCN(c5nnc(Cc6ccccc6)o5)CC4)cnn3c2)cn1 [Compound 155, 2-benzyl-5-(4-(6-(1-methyl-1H-pyrazol-4-yl)pyrazolo[1,5-a]pyridin-3-yl)piperazin-1-yl)-1,3,4-oxadiazole]",5.02,0.0586
"Cn1cc(-c2ccc3c(N4CCN(S(=O)(=O)NCc5ccccc5)CC4)cnn3c2)cn1 [Compound 159, N-benzyl-4-[6-(1-methyl-1H-pyrazol-4-yl)pyrazolo[1,5-a]pyridin-3-yl]piperazine-1-sulfonamide]",3.62,0.45
"Cn1cc(-c2ccc3c(N4CCN(S(=O)(=O)CCc5ccccc5)CC4)cnn3c2)cn1 [Compound 160, 6-(1-methyl-1H-pyrazol-4-yl)-3-(4-(phenethylsulfonyl)piperazin-1-yl)pyrazolo[1,5-a]pyridine]",2.80,9.68

# The remaining lines, values ahead:
GPR17 Fold Induction (Over Vehicle; 3 μM) [1],IC50 [2] [µM],SMILES
2.90,1.48,"CN(Cc1ccccc1)C(=O)N1CCN(c2cnn3cc(-c4cnn(C)c4)ccc23)CC1 [Compound 162, N-benzyl-N-methyl-4-(6-(1-methyl-1H-pyrazol-4-yl)pyrazolo[1,5-a]pyridin-3-yl)piperazine-1-carboxamide]"
5.94,0.784,"Cn1cc(-c2ccc3c(N4CCN(c5ncc(CC(O)c6ccccc6)cn5)CC4)cnn3c2)cn1 (stereo not drawn) [Compound 164, 2-(2-(4-(6-(1-methyl-1H-pyrazol-4-yl)pyrazolo[1,5-a]pyridin-3-yl)piperazin-1-yl)pyrimidin-5-yl)-1-phenylethan-1-ol]"
18.42,0.686,"Cn1cc(-c2ccc3c(N4CCN(c5ncc(CCC(O)c6ccccc6)cn5)CC4)cnn3c2)cn1 (stereo not drawn) [Compound 165, 3-(2-(4-(6-(1-methyl-1H-pyrazol-4-yl)pyrazolo[1,5-a]pyridin-3-yl)piperazin-1-yl)pyrimidin-5-yl)-1-phenylpropan-1-ol]"
6.36,3.57,"Cn1cc(-c2ccc3c(N4CCN(c5ncc(Oc6ccccc6)cn5)CC4)cnn3c2)cn1 [Compound 166, 6-(1-methyl-1H-pyrazol-4-yl)-3-(4-(5-phenoxypyrimidin-2-yl)piperazin-1-yl)pyrazolo[1,5-a]pyridine]"
6.43,0.105,"CCCCC(O)c1cnc(N2CCN(c3cnn4cc(-c5cnn(C)c5)ccc34)CC2)nc1 (stereo not drawn) [Compound 168, 1-(2-(4-(6-(1-methyl-1H-pyrazol-4-yl)pyrazolo[1,5-a]pyridin-3-yl)piperazin-1-yl)pyrimidin-5-yl)pentan-1-ol]"
9.79,0.825,"Cn1cc(-c2ccc3c(N4CCN(c5ncc(Cc6ccoc6)cn5)CC4)cnn3c2)cn1 [Compound 169, 3-(4-(5-(furan-3-ylmethyl)pyrimidin-2-yl)piperazin-1-yl)-6-(1-methyl-1H-pyrazol-4-yl)pyrazolo[1,5-a]pyridine]"
3.96,2.38,"Cn1cc(-c2ccc3c(N4CCN(c5ncc(Cc6ncco6)cn5)CC4)cnn3c2)cn1 [Compound 170, 2-((2-(4-(6-(1-methyl-1H-pyrazol-4-yl)pyrazolo[1,5-a]pyridin-3-yl)piperazin-1-yl)pyrimidin-5-yl)methyl)oxazole]"
5.33,> 10,"Cn1cc(-c2ccc3c(N4CCN(c5ncc(Cc6cocn6)cn5)CC4)cnn3c2)cn1 [Compound 171, 4-((2-(4-(6-(1-methyl-1H-pyrazol-4-yl)pyrazolo[1,5-a]pyridin-3-yl)piperazin-1-yl)pyrimidin-5-yl)methyl)oxazole]"
4.90,0.71,"Cn1cc(-c2ccc3c(N4CCN(c5ncc(Cc6cscn6)cn5)CC4)cnn3c2)cn1 [Compound 172, 4-((2-(4-(6-(1-methyl-1H-pyrazol-4-yl)pyrazolo[1,5-a]pyridin-3-yl)piperazin-1-yl)pyrimidin-5-yl)methyl)thiazole]"
6.67,0.306,"Cn1cc(-c2ccc3c(N4CCN(c5ncc(CN6CCc7ccccc76)cn5)CC4)cnn3c2)cn1 [Compound 174, 3-(4-(5-(indolin-1-ylmethyl)pyrimidin-2-yl)piperazin-1-yl)-6-(1-methyl-1H-pyrazol-4-yl)pyrazolo[1,5-a]pyridine]"
4.05,4.33,"Cn1cc(-c2ccc3c(N4CCN(c5ncc(Cc6nnco6)cn5)CC4)cnn3c2)cn1 [Compound 180, 2-((2-(4-(6-(1-methyl-1H-pyrazol-4-yl)pyrazolo[1,5-a]pyridin-3-yl)piperazin-1-yl)pyrimidin-5-yl)methyl)-1,3,4-oxadiazole]"
13.16,6.99,"Cn1cc(-c2ccc3c(N4CCN(c5ncc(Cc6nccs6)cn5)CC4)cnn3c2)cn1 [Compound 182, 2-((2-(4-(6-(1-methyl-1H-pyrazol-4-yl)pyrazolo[1,5-a]pyridin-3-yl)piperazin-1-yl)pyrimidin-5-yl)methyl) thiazole]"
5.74,0.815,"Cn1cc(-c2ccc3c(N4CCN(c5ncc(CCCc6ccccc6)cn5)CC4)cnn3c2)cn1 [Compound 183, 6-(1-methyl-1H-pyrazol-4-yl)-3-(4-(5-(3-phenylpropyl)pyrimidin-2-yl)piperazin-1-yl)pyrazolo[1,5-a]pyridine]"
12.67,0.51,"Cn1cc(-c2ccc3c(N4CCN(c5ncc(CC6CCCOC6)cn5)CC4)cnn3c2)cn1 (stereo not drawn) [Compound 185, 6-(1-methyl-1H-pyrazol-4-yl)-3-(4-(5-((tetrahydro-2H-pyran-3-yl)methyl)pyrimidin-2-yl)piperazin-1-yl)pyrazolo[1,5-a]pyridine]"
1.26,> 10,"Cn1cc(-c2ccc3c(N4CCN(c5ncc(S(=O)(=O)c6ccccc6)cn5)CC4)cnn3c2)cn1 [Compound 186, 6-(1-methyl-1H-pyrazol-4-yl)-3-(4-(5-(phenylsulfonyl)pyrimidin-2-yl)piperazin-1-yl)pyrazolo[1,5-a]pyridine]"
6.03,5.1,"Cn1cc(-c2ccc3c(N4CCN(c5ncc(Sc6ccccc6)cn5)CC4)cnn3c2)cn1 [Compound 188, 6-(1-methyl-1H-pyrazol-4-yl)-3-(4-(5-(phenylthio)pyrimidin-2-yl)piperazin-1-yl)pyrazolo[1,5-a]pyridine]"
6.05,0.543,CCCCCc1cnc(N2CCN(c3cnn4cc(-c5cnn(C)c5)ccc34)CC2)nc1 [Compound 190]
